From patent US10562891B2, “Quinazolinones as PARP14 inhibitors” (Ribon Therapeutics Inc., priority 2017, dated 2020) come the findings set out here.

Molecules are shown by their SMILES. pIC50: −log10 of the molar value. Structures can show the parent of a compound that is named as a salt.

In general, pIC50 refers to the IC50 on a negative log10 scale, so that one unit is a factor of ten. A higher pIC50 goes with a low IC50.

This test deals with catalytic domain of human PARP14 (Homo sapiens (Human), UniProt Q460N5). The test can be described thus: Enzymatic assay for inhibition of PARP14 (DELFIA, auto-modification with biotin-NAD). Type of test: biochemical. Particulars: auto-modification of PARP14 by biotin-NAD, 50 nM PARP14, 3 μM biotin-NAD. An outline of the steps: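 His-TEV-tagged PARP14 catalytic domain (50 nM) preincubated with compound 30 min at 25 °C, then auto-modified with 3 μM biotin-NAD for 3 h at 25 °C in HEPES pH 8 buffer with DTT. IC50 from 4-parameter fit, rucaparib and DMSO as controls.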
Chain of catalytic domain of human PARP14 (Q460N5 1611-1801): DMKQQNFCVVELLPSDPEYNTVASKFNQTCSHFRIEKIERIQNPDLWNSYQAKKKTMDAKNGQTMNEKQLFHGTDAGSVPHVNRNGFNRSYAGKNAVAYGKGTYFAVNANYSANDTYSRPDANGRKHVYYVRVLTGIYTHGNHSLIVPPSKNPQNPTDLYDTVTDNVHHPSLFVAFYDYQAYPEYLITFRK
In the case of `O=c1[nH]c(CSC2CCOCC2)nc2cc(NC3CCN(CC(F)(F)F)CC3)cc(F)c12` [Example 288, 5-Fluoro-2-(((tetrahydro-2H-pyran-4-yl)thio)methyl)-7-((1-(2,2,2-trifluoroethyl)piperidin-4-yl)amino)quinazolin-4(3H)-one], the pIC50 was greater than 6.00.

`O=c1[nH]c(CSC2CCNCC2)nc2cc(NCC3CCC3)c(F)cc12` [Example 289, 7-((Cyclobutylmethyl)amino)-6-fluoro-2-((piperidin-4-ylthio)methyl)quinazolin-4(3H)-one hydrochloride] showed a pIC50 of 5.00 to 6.00.

In turn, `O=c1[nH]c(CSC2CCOCC2)nc2cc(NC3CCCCC3)c(F)cc12` [Example 290, 7-(Cyclohexylamino)-6-fluoro-2-(((tetrahydro-2H-pyran-4-yl)thio)methyl)quinazolin-4(3H)-one] had a pIC50 greater than 6.00.

Compound `O=c1[nH]c(CSC2CCOCC2)nc2cc(OCC3CC3)cc(F)c12` [Example 291, 7-(Cyclopropylmethoxy)-5-fluoro-2-(((tetrahydro-2H-pyran-4-yl)thio)methyl)quinazolin-4(3H)-one] had a pIC50 greater than 6.00.

`O=c1[nH]c(CSC2CCOCC2)nc2cc(NCC3CC3)c(F)cc12` [Example 292, 7-((Cyclopropylmethyl)amino)-6-fluoro-2-(((tetrahydro-2H-pyran-4-yl)thio)methyl)quinazolin-4(3H)-one] gave a pIC50 greater than 6.00.

The compound `O=c1[nH]c(CS[C@H]2CC[C@H](O)CC2)nc2cc(NC3CCCC3)c(F)cc12` [Example 293, 7-(Cyclopentylamino)-6-fluoro-2-(((trans-4-hydroxycyclohexyl)thio)methyl)quinazolin-4(3H)-one] showed a pIC50 greater than 6.00.

`O=c1[nH]c(CSC2CCOCC2)nc2cc(NC3CCCC3)c(F)c(F)c12` [Example 294, 7-(Cyclopentylamino)-5,6-difluoro-2-(((tetrahydro-2H-pyran-4-yl)thio)methyl)quinazolin-4(3H)-one] had a pIC50 greater than 6.00.

`O=c1[nH]c(CSC2CCS(=O)(=O)CC2)nc2cc(NCC3CCC3)c(F)cc12` [Example 296, 7-((Cyclobutylmethyl)amino)-2-(((1,1-dioxidotetrahydro-2H-thiopyran-4-yl)thio)methyl)-6-fluoroquinazolin-4(3H)-one]: the pIC50 was greater than 6.00.

Compound `O=c1[nH]c(CSC2CCOCC2)nc2cc(OCC3CCN(CCC(F)(F)F)CC3)cc(F)c12` [Example 298, 5-Fluoro-2-(((tetrahydro-2H-pyran-4-yl)thio)methyl)-7-((1-(3,3,3-trifluoropropyl)piperidin-4-yl)methoxy)quinazolin-4(3H)-one] had a pIC50 greater than 6.00.

For `CC(F)(F)CN1CCC(COc2cc(F)c3c(=O)[nH]c(CSC4CCOCC4)nc3c2)CC1` [Example 299, 7-((1-(2,2-Difluoropropyl)piperidin-4-yl)methoxy)-5-fluoro-2-(((tetrahydro-2H-pyran-4-yl)thio)methyl)quinazolin-4(3H)-one], the negative logarithm of the IC50 (pIC50) is greater than 6.00.

Take `O=c1[nH]c(CSC2CCOCC2)nc2cc(OCC3CCN(CC(F)F)CC3)cc(F)c12` [Example 300, 7-((1-(2,2-Difluoroethyl)piperidin-4-yl)methoxy)-5-fluoro-2-(((tetrahydro-2H-pyran-4-yl)thio)methyl)quinazolin-4(3H)-one]: the pIC50 was greater than 6.00.

Take `O=c1[nH]c(CSC2CCOCC2)nc2cc(OCC3CCN(C4COC4)CC3)cc(F)c12` [Example 301, 5-Fluoro-7-((1-(oxetan-3-yl)piperidin-4-yl)methoxy)-2-(((tetrahydro-2H-pyran-4-yl)thio)methyl)quinazolin-4(3H)-one]: the pIC50 was greater than 6.00.

Compound `O=c1[nH]c(CSC2CCOCC2)nc2cc(NC3CCN(C4COC4)CC3)cc(F)c12` [Example 302, 5-Fluoro-7-((1-(oxetan-3-yl)piperidin-4-yl)amino)-2-(((tetrahydro-2H-pyran-4-yl)thio)methyl)quinazolin-4(3H)-one] had a pIC50 greater than 6.00.

The compound `O=c1[nH]c(CSC2CCS(=O)(=O)CC2)nc2cc(OCC3CCC3)cc(F)c12` [Example 304, 7-(cyclobutylmethoxy)-2-(((1,1-dioxidotetrahydro-2H-thiopyran-4-yl)thio)methyl)-5-fluoroquinazolin-4(3H)-one] gave a pIC50 greater than 6.00.

With `CC(C)COc1cc(F)c2c(=O)[nH]c(CSC3CCOCC3)nc2c1` [Example 306, 5-Fluoro-7-isobutoxy-2-(((tetrahydro-2H-pyran-4-yl)thio)methyl)quinazolin-4(3H)-one], the pIC50 is 5.00 to 6.00.

The compound `O=C(CO)N1CCC(SCc2nc3cc(OCC4CCC4)cc(F)c3c(=O)[nH]2)CC1` [Example 307, 7-(Cyclobutylmethoxy)-5-fluoro-2-(((1-(2-hydroxyacetyl)piperidin-4-yl)thio)methyl)quinazolin-4(3H)-one] gave a pIC50 greater than 6.00.

Compound `CC1(C)CC(SCc2nc3cc(OCC4CCC4)cc(F)c3c(=O)[nH]2)CCO1` (stereo not shown) [Example 308, 7-(Cyclobutylmethoxy)-2-(((2,2-dimethyltetrahydro-2H-pyran-4-yl)thio)methyl)-5-fluoroquinazolin-4(3H)-one] showed a pIC50 greater than 6.00.

In turn, `O=c1[nH]c(CSC2CCCCC2)nc2cc(OCC3CCC3)cc(F)c12` [Example 309, 7-(Cyclobutylmethoxy)-2-((cyclohexylthio)methyl)-5-fluoroquinazolin-4(3H)-one] had a pIC50 greater than 6.00.

As for `O=c1[nH]c(CSC2CCCCC2)nc2cc(NC3CCCC3)c(F)c(F)c12` [Example 310, 2-((Cyclohexylthio)methyl)-7-(cyclopentylamino)-5,6-difluoroquinazolin-4(3H)-one], the pIC50 is greater than 6.00.

In the case of `NC(=O)[C@H]1CC[C@H](SCc2nc3cc(OCC4CCC4)cc(F)c3c(=O)[nH]2)CC1` [Example 311, Trans-4-(((7-(cyclobutylmethoxy)-5-fluoro-4-oxo-3,4-dihydroquinazolin-2-yl)methyl)thio)cyclohexane-1-carboxamide], the pIC50 was 5.00 to 6.00.

`O=c1[nH]c(CSC2CCOCC2)nc2cc(OCC3CCCN(CC(F)F)C3)cc(F)c12` (stereo not shown) [Example 312, 7-((1-(2,2-Difluoroethyl)piperidin-3-yl)methoxy)-5-fluoro-2-(((tetrahydro-2H-pyran-4-yl)thio)methyl)quinazolin-4(3H)-one] gave a pIC50 greater than 6.00.

Regarding `O=c1[nH]c(CS[C@H]2CC[C@H](O)CC2)nc2cc(NC3CCCC3)c(F)c(F)c12` [Example 313, 7-(Cyclopentylamino)-5,6-difluoro-2-(((trans-4-hydroxycyclohexyl)thio)methyl)quinazolin-4(3H)-one], the pIC50 was greater than 6.00.

With `O=c1[nH]c(CS[C@H]2CC[C@H](O)CC2)nc2cc(OCC3CCCC3)cc(F)c12` [Example 314, 7-(Cyclopentylmethoxy)-5-fluoro-2-(((trans-4-hydroxycyclohexyl)thio)methyl)quinazolin-4(3H)-one], the pIC50 is greater than 6.00.

`O=c1[nH]c(CSC2CCOCC2)nc2cc(OCC3CC3(F)F)cc(F)c12` (stereo not shown) [Example 315, 7-((2,2-Difluorocyclopropyl)methoxy)-5-fluoro-2-(((tetrahydro-2H-pyran-4-yl)thio)methyl)quinazolin-4(3H)-one] had a pIC50 greater than 6.00.

In the case of `O=c1[nH]c(CSC2CCS(=O)(=O)CC2)nc2cc(NC3CCCC3)c(F)c(F)c12` [Example 316, 7-(Cyclopentylamino)-2-(((1,1-dioxidotetrahydro-2H-thiopyran-4-yl)thio)methyl)-5,6-difluoroquinazolin-4(3H)-one], the pIC50 was greater than 6.00.
